Measured values from patent EP4745137A1 (Gluetacs Therapeutics (Shanghai) Co., Ltd., priority 2023, dated 2025).

Assays:
WEE1 = molecular target: T1, WEE1 (Homo sapiens, UniProt P30291+Q96SW2); assay: Western-blot assay of substrate protein degradation in hPBMCs, WEE1; assay type: cell-based; details: 24 hours of compound treatment, compounds tested at 50 nM and 500 nM (concentration of the table not stated)
T1 construct: endogenous in cells; host or cells: hPBMCs (Milecell Biotechnologies)

IKZF2 = molecular target: T2, IKZF2 (Homo sapiens, UniProt Q96SW2+Q9UKS7); assay: Western-blot assay of substrate protein degradation in hPBMCs, IKZF2; assay type: cell-based; details: 24 hours of compound treatment, compounds tested at 50 nM and 500 nM (concentration of the table not stated)
T2 construct: endogenous in cells; host or cells: hPBMCs (Milecell Biotechnologies)
T2 sequence (Q9UKS7 whole entry): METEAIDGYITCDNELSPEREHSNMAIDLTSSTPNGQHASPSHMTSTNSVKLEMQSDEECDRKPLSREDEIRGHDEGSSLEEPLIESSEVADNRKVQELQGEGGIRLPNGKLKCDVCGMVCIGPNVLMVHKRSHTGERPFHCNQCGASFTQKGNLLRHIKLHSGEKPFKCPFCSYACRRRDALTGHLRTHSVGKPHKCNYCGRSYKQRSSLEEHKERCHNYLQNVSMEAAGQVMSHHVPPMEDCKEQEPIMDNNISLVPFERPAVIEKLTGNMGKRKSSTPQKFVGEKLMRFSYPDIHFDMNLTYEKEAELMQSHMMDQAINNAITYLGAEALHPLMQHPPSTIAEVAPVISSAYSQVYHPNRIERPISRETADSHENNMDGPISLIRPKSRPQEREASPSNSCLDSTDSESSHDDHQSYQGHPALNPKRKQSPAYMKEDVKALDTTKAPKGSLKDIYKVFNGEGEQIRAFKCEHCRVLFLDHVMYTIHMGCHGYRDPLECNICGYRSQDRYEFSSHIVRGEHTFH
T2 sequence (Q96SW2 whole entry): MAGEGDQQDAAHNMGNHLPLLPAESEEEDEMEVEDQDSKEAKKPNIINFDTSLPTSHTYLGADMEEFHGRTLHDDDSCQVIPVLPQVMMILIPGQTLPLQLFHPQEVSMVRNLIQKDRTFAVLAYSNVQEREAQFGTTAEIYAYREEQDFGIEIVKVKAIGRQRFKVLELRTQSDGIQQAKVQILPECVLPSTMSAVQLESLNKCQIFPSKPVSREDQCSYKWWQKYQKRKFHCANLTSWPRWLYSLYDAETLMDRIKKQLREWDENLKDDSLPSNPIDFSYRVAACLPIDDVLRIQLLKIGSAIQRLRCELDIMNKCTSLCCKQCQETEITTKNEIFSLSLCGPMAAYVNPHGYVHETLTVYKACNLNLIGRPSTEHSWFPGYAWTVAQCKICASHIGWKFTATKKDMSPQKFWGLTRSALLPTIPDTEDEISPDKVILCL
T2 sequence (Q16531 whole entry partner): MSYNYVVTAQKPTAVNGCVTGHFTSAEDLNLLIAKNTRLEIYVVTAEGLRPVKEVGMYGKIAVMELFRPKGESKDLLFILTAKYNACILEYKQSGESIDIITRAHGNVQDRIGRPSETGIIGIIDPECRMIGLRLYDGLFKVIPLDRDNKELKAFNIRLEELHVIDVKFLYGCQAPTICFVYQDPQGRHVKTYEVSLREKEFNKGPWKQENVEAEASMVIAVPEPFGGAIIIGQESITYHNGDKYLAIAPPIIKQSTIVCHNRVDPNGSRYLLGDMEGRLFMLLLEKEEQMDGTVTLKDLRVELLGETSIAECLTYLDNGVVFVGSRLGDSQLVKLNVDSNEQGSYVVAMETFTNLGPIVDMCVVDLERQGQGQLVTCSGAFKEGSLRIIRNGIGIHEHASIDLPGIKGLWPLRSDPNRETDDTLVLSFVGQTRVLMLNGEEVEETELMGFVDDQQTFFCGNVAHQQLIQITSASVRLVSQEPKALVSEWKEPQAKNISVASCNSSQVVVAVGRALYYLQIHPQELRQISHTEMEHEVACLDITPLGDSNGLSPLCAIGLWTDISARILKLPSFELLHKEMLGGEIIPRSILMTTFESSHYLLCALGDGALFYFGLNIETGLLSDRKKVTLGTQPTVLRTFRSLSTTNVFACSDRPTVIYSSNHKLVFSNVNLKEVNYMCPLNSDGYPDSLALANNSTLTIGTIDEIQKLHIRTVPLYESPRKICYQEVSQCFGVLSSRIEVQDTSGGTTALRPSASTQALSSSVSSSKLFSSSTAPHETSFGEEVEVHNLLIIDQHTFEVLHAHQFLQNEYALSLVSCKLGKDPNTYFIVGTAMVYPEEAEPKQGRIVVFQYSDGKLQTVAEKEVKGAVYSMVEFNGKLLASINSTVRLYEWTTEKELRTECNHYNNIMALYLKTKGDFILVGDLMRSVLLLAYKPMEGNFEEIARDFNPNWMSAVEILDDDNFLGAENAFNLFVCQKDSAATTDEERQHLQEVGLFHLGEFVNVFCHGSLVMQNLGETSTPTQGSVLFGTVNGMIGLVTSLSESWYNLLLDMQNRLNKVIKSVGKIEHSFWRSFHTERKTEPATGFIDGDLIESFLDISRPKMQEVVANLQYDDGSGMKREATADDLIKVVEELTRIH

CK1α = molecular target: T3, CK1α (Homo sapiens, UniProt P48729+Q96SW2); assay: Western-blot assay of substrate protein degradation in hPBMCs, CK1α; assay type: cell-based; details: 24 hours of compound treatment, compounds tested at 50 nM and 500 nM (concentration of the table not stated)
T3 construct: endogenous in cells; host or cells: hPBMCs (Milecell Biotechnologies)

Jurkat = assay: Tumor cell proliferation inhibition (CellTiter-Meiluncell Luminescent Cell Viability Assay), Jurkat; details: Homo sapiens, 96 h, read-out: inhibitory activity (IC50, nM) against tumor cells proliferation, Jurkat
NCI-H1975 = assay: Tumor cell proliferation inhibition (CellTiter-Meiluncell Luminescent Cell Viability Assay), NCI-H1975; details: Homo sapiens, NCI-H1975, 96 h, read-out: inhibitory activity (IC50, nM) against tumor cells proliferation, H1975
[1] = tested on: Human acute T lymphocytic leukemia cells (Molt-4); assay: Tumor cell proliferation inhibition (CellTiter-Meiluncell Luminescent Cell Viability Assay), Molt-4; details: MOLT-4, 96 h, read-out: inhibitory activity (IC50, nM) against tumor cells proliferation, Molt 4
MM.1R = assay: Tumor cell proliferation inhibition (CellTiter-Meiluncell Luminescent Cell Viability Assay), MM.1R; details: Homo sapiens, 96 h, read-out: inhibitory activity (IC50, nM) against tumor cells proliferation, MM.1R
[2] = tested on: Human breast cancer cells (MDA-MB-231); assay: Tumor cell proliferation inhibition (CellTiter-Meiluncell Luminescent Cell Viability Assay), MDA-MB-231; details: MDA-MB-231, 96 h, read-out: inhibitory activity (IC50, nM) against tumor cells proliferation, MDA-MB-231
[3] = molecular target: T4, human Cereblon WT GST-tagged protein (Homo sapiens, UniProt Q96SW2); assay: CRBN-binding affinity by HTRF (CEREBLON BINDING kit); details: HTRF inhibitory activity, CEREBLON BINDING kit; read-out: HTRF IC50
T4 construct: purchased CISBIO 64BDCRBNPEH
T4 sequence (Q96SW2 whole entry): as the sequence (Q96SW2 whole entry) above

MGC803 = assay: Tumor cell proliferation inhibition (CellTiter-Meiluncell Luminescent Cell Viability Assay), MGC803; details: Homo sapiens, MGC-803, 96 h, read-out: inhibitory activity (IC50, nM) against tumor cells proliferation, MGC803
Vcap = assay: Tumor cell proliferation inhibition (CellTiter-Meiluncell Luminescent Cell Viability Assay), Vcap; details: Homo sapiens, 96 h, read-out: inhibitory activity (IC50, nM) against tumor cells proliferation, Vcap
GSPT1 = molecular target: T5, GSPT1 (Homo sapiens, UniProt P15170+Q96SW2); assay: Western-blot assay of substrate protein degradation in hPBMCs, GSPT1; assay type: cell-based; details: 24 hours of compound treatment, compounds tested at 50 nM and 500 nM (concentration of the table not stated)
T5 construct: endogenous in cells; host or cells: hPBMCs (Milecell Biotechnologies)
T5 sequence (P15170 whole entry): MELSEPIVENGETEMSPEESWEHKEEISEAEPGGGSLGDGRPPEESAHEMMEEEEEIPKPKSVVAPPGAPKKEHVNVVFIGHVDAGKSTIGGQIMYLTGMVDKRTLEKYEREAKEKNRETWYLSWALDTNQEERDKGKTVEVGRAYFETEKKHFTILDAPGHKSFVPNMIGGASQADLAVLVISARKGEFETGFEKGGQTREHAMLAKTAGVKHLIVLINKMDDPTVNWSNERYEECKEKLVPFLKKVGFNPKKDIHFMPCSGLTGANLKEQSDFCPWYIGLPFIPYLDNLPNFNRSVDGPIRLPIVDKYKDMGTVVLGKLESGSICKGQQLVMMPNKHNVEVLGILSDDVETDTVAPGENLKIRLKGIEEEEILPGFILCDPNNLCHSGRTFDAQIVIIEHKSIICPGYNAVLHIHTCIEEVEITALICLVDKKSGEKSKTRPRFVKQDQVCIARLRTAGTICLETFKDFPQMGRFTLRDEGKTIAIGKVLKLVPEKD
T5 sequence (Q96SW2 whole entry): as the sequence (Q96SW2 whole entry) above
T5 sequence (Q16531 whole entry partner): as the sequence (Q16531 whole entry partner) above

SR = assay: Tumor cell proliferation inhibition (CellTiter-Meiluncell Luminescent Cell Viability Assay), SR; details: Homo sapiens, 96 h, read-out: inhibitory activity (IC50, nM) against tumor cells proliferation, SR
Description: (§1) The tumor cells used herein were cultured in a cell culture medium listed in table 2 at 37°C in an incubator with 5% CO2. Prior to experimentation, all cell lines used were correctly identified by STR profiling, and tested negative for mycoplasma contamination using a mycoplasma detection kit through routine screenings.
On the following day, the test compounds of the present disclosure were subjected to serial dilution. […] Subsequently, 0.5 µL of the test compound dilution was transferred into the 96-well plate containing the cells, with each well containing 100 µL of cell culture medium. […] Into the 96-well plate, the diluted test compounds and corresponding detection reagents were added, resulting in final test compound concentrations of 500 nM and 10 nM, respectively.
(§2) After the cells were treated with the compounds of the present disclosure for a specified period (the treatment durations were shown in Table 3), the cell viability assay reagent was added to the culture medium according to the kit's instructions to determine cell viability. […] All controls were treated using the same procedure as the compounds of the present disclosure. The growth inhibition curves for the compounds of the present disclosure were plotted using Prism GraphPad software, and the IC50 values were calculated therefrom.

IKZF1 = molecular target: T6, IKZF1 (Homo sapiens, UniProt Q13422+Q96SW2); assay: Western-blot assay of substrate protein degradation in hPBMCs, IKZF1; assay type: cell-based; details: 24 hours of compound treatment, compounds tested at 50 nM and 500 nM (concentration of the table not stated)
T6 construct: endogenous in cells; host or cells: hPBMCs (Milecell Biotechnologies)
T6 sequence (Q13422 whole entry): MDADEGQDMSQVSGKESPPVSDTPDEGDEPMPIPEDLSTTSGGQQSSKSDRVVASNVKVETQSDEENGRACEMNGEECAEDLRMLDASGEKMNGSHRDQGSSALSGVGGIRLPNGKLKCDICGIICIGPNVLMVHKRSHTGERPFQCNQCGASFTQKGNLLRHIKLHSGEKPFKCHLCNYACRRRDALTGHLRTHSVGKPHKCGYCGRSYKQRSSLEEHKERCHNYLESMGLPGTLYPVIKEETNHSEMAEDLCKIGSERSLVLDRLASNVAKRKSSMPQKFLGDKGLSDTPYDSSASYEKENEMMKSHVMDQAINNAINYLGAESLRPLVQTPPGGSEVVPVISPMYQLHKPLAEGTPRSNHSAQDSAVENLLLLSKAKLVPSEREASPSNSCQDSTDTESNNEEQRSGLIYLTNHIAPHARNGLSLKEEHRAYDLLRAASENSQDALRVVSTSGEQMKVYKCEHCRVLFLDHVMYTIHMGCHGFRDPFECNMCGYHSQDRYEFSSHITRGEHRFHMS
T6 sequence (Q96SW2 whole entry): as the sequence (Q96SW2 whole entry) above
T6 sequence (Q16531 whole entry partner): as the sequence (Q16531 whole entry partner) above

IKZF3 = molecular target: T7, IKZF3 (Homo sapiens, UniProt Q96SW2+Q9UKT9); assay: Western-blot assay of substrate protein degradation in hPBMCs, IKZF3; assay type: cell-based; details: 24 hours of compound treatment, compounds tested at 50 nM and 500 nM (concentration of the table not stated)
T7 construct: endogenous in cells; host or cells: hPBMCs (Milecell Biotechnologies)
T7 sequence (Q9UKT9 whole entry): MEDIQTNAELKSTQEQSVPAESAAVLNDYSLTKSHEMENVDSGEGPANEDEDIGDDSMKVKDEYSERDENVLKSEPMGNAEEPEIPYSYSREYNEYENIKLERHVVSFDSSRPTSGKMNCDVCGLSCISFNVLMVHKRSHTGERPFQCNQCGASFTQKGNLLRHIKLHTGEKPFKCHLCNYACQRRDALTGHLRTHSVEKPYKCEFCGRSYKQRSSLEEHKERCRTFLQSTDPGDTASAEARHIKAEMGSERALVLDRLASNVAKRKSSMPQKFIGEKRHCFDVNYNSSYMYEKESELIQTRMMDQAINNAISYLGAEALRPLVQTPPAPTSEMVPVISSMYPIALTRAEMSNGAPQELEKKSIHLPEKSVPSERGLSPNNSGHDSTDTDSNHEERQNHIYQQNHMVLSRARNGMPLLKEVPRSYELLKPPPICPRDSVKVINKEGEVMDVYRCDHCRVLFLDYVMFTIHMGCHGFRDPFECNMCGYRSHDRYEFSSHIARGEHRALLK
T7 sequence (Q96SW2 whole entry): as the sequence (Q96SW2 whole entry) above
T7 sequence (Q16531 whole entry partner): as the sequence (Q16531 whole entry partner) above

CAL-62 = assay: Tumor cell proliferation inhibition (CellTiter-Meiluncell Luminescent Cell Viability Assay), CAL-62; details: Homo sapiens, CAL-62, 96 h, read-out: inhibitory activity (IC50, nM) against tumor cells proliferation, CAL-62
Description: as §1
On the following day, the test compounds of the present disclosure were subjected to serial dilution. […] Subsequently, 0.5 µL of the test compound dilution was transferred into the 96-well plate containing the cells, with each well containing 100 µL of cell culture medium. […] Into the 96-well plate, the diluted test compounds and corresponding detection reagents were added, resulting in final test compound concentrations of 500 nM and 10 nM, respectively. The experimental procedure is described below using the diluted 2 µM test compound as an example.
as §2

CCRF-CEM = assay: Tumor cell proliferation inhibition (CellTiter-Meiluncell Luminescent Cell Viability Assay), CCRF-CEM; details: Homo sapiens, 96 h, read-out: inhibitory activity (IC50, nM) against tumor cells proliferation, CCRF-CEM
SW620 = assay: Tumor cell proliferation inhibition (CellTiter-Meiluncell Luminescent Cell Viability Assay), SW620; details: Homo sapiens, SW-620, 96 h, read-out: inhibitory activity (IC50, nM) against tumor cells proliferation, SW620

T1 sequence (P30291 whole entry): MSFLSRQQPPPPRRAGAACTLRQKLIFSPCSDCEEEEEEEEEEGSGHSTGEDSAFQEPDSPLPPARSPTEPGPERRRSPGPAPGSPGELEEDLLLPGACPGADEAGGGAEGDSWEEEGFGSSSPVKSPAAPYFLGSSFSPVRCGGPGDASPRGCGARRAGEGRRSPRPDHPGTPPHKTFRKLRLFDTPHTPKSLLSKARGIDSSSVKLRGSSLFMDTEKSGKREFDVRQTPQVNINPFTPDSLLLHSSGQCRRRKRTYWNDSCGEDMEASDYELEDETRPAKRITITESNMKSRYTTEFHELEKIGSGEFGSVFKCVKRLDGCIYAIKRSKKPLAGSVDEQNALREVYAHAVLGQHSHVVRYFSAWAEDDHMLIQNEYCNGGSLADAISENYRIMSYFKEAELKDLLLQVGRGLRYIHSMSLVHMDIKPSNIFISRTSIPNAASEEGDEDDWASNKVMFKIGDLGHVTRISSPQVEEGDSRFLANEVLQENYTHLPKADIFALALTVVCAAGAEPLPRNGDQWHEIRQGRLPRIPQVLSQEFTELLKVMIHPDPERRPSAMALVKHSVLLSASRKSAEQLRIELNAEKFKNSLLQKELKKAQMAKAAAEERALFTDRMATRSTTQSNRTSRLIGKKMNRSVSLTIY
T1 sequence (Q96SW2 whole entry): as the sequence (Q96SW2 whole entry) above
T1 sequence (Q16531 whole entry partner): as the sequence (Q16531 whole entry partner) above

Row | Compound | IC50 (Jurkat) [nM] | IC50 (NCI-H1975) [nM] | IC50 [1] [nM] | IC50 (MM.1R) [nM] | IC50 [2] [nM] | IC50 [3] [nM] | IC50 (MGC803) [nM] | IC50 (Vcap) [nM] | IC50 (SR) [nM] | IC50 (CAL-62) [nM] | IC50 (CCRF-CEM) [nM] | IC50 (SW620) [nM] | Weel substrate protein remaining % (WEE1) | IKZF2 substrate protein remaining % (IKZF2) | CK1a substrate protein remaining % (CK1α) | GSPT1 substrate protein remaining % (GSPT1) | IKZF 1 substrate protein remaining % (IKZF1) | IKZF3 substrate protein remaining % (IKZF3)
1 | O=C1CCC(N2Cc3cc(CN4CCN(c5ccc(Cl)cc5)CC4)ccc3C2=O)C(=O)N1 (stereo not drawn) [GT-04455, 3-(5-((4-(4-chlorophenyl)piperazin-1-yl)methyl)-1-oxoisoindolin-2-yl)piperidine-2,6-dione] | 1 to 5 | 50 to 100 | 1 to 5 | 5 to 10 | 50 to 100 | 500 to 1000 | 50 to 100 | 10 to 50 | 100 to 500 | 5 to 10 | 1 to 5 | 10 to 50 | A (0% ≤ substrate protein remaining % ≤ 80%) | A (0% ≤ substrate protein remaining % ≤ 80%) | A (0% ≤ substrate protein remaining % ≤ 80%) | A (0% ≤ substrate protein remaining % ≤ 80%) | A (0% ≤ substrate protein remaining % ≤ 80%) | A (0% ≤ substrate protein remaining % ≤ 80%)
2 | Cc1cccc(N2CCN(Cc3ccc4c(c3)CN(C3CCC(=O)NC3=O)C4=O)CC2)c1 (stereo not drawn) [GT-04462, 3-(1-oxo-5-((4-(m-tolyl)piperazin-1-yl)methyl)isoindolin-2-yl)piperidine-2,6-dione] | 10 to 50 | 10 to 50 | 1 to 5 | 1 to 5 | 10 to 50 | 500 to 1000 | 10 to 50 | 5 to 10 | 10 to 50 | 10 to 50 | 1 to 5 | 10 to 50 | A (0% ≤ substrate protein remaining % ≤ 80%) | A (0% ≤ substrate protein remaining % ≤ 80%) | A (0% ≤ substrate protein remaining % ≤ 80%) | A (0% ≤ substrate protein remaining % ≤ 80%) | A (0% ≤ substrate protein remaining % ≤ 80%) | A (0% ≤ substrate protein remaining % ≤ 80%)
3 | Cc1ccc(N2CCN(Cc3ccc4c(c3)CN(C3CCC(=O)NC3=O)C4=O)CC2)cc1 (stereo not drawn) [GT-04463, 3-(1-oxo-5-((4-(p-tolyl)piperazin-1-yl)methyl)isoindolin-2-yl)piperidine-2,6-dione] | 5 to 10 | 100 to 500 | 5 to 10 | 5 to 10 | 100 to 500 | 1000 to 1500 | 100 to 500 | 10 to 50 | 500 to 1000 | 10 to 50 | 5 to 10 | 100 to 500 | A (0% ≤ substrate protein remaining % ≤ 80%) | A (0% ≤ substrate protein remaining % ≤ 80%) | A (0% ≤ substrate protein remaining % ≤ 80%) | A (0% ≤ substrate protein remaining % ≤ 80%) | A (0% ≤ substrate protein remaining % ≤ 80%) | A (0% ≤ substrate protein remaining % ≤ 80%)
4 | O=C1CCC(N2Cc3cc(CN4CCN(c5cccc(Br)c5)CC4)ccc3C2=O)C(=O)N1 (stereo not drawn) [GT-04467, 3-(5-((4-(3-bromophenyl)piperazin-1-yl)methyl)-1-oxoisoindolin-2-yl)piperidine-2,6-dione] | 1 to 5 | 10 to 50 | 1 to 5 | 1 to 5 | 10 to 50 | 500 to 1000 | 10 to 50 | 5 to 10 | 10 to 50 | 1 to 5 | 1 to 5 | 10 to 50 | A (0% ≤ substrate protein remaining % ≤ 80%) | A (0% ≤ substrate protein remaining % ≤ 80%) | A (0% ≤ substrate protein remaining % ≤ 80%) | A (0% ≤ substrate protein remaining % ≤ 80%) | A (0% ≤ substrate protein remaining % ≤ 80%) | A (0% ≤ substrate protein remaining % ≤ 80%)

Further lines, with some results ahead:

Row | IC50 (Jurkat) [nM] | IC50 (NCI-H1975) [nM] | IC50 [1] [nM] | IC50 (MM.1R) [nM] | IC50 [2] [nM] | IC50 [3] [nM] | IC50 (MGC803) [nM] | IC50 (Vcap) [nM] | IC50 (SR) [nM] | IC50 (CAL-62) [nM] | IC50 (CCRF-CEM) [nM] | IC50 (SW620) [nM] | Compound | Weel substrate protein remaining % (WEE1) | IKZF2 substrate protein remaining % (IKZF2) | CK1a substrate protein remaining % (CK1α) | GSPT1 substrate protein remaining % (GSPT1) | IKZF 1 substrate protein remaining % (IKZF1) | IKZF3 substrate protein remaining % (IKZF3)
5 | 5 to 10 | 100 to 500 | 10 to 50 | 10 to 50 | 100 to 500 | 500 to 1000 | 100 to 500 | 50 to 100 | 500 to 1000 | 10 to 50 | 5 to 10 | 100 to 500 | O=C1CCC(N2Cc3cc(CN4CCN(c5ccccc5Br)CC4)ccc3C2=O)C(=O)N1 (stereo not drawn) [GT-04456, 3-(5-((4-(2-bromophenyl)piperazin-1-yl)methyl)-1-oxoisoindolin-2-yl)piperidine-2,6-dione] | A (0% ≤ substrate protein remaining % ≤ 80%) | A (0% ≤ substrate protein remaining % ≤ 80%) | A (0% ≤ substrate protein remaining % ≤ 80%) | A (0% ≤ substrate protein remaining % ≤ 80%) | A (0% ≤ substrate protein remaining % ≤ 80%) | A (0% ≤ substrate protein remaining % ≤ 80%)
6 | 1 to 5 | 10 to 50 | 1 to 5 | 1 to 5 | 10 to 50 | 500 to 1000 | 50 to 100 | 10 to 50 | 50 to 100 | 5 to 10 | 1 to 5 | 10 to 50 | O=C1CCC(N2Cc3cc(CN4CCC(c5cccc(Br)c5)CC4)ccc3C2=O)C(=O)N1 (stereo not drawn) [GT-04466, 3-(5-((4-(3-bromophenyl)piperidin-1-yl)methyl)-1-oxoisoindolin-2-yl)piperidine-2,6-dione] | A (0% ≤ substrate protein remaining % ≤ 80%) | A (0% ≤ substrate protein remaining % ≤ 80%) | A (0% ≤ substrate protein remaining % ≤ 80%) | A (0% ≤ substrate protein remaining % ≤ 80%) | A (0% ≤ substrate protein remaining % ≤ 80%) | A (0% ≤ substrate protein remaining % ≤ 80%)
